Test results reported in patent US11992506B2, “Stem cell derived pancreatic islet differentiation” (Vertex Pharmaceuticals Incorporated, priority 2021, dated 2024).
Several values for one entry are separate records, joined by “and”; a condition that tells them apart may be missing. Identical values can stand only once.

Tests used:
[1] = system: PDX1-positive, NKX-negative cells; assay: Effects of differentiation agents on pancreatic islet cell differentiation (ISL1/NKX6.1 flow cytometry); type: cell-based; conditions: for % of beta cells in S5D6 cell population: agents added to the base protocol on S4D5, S5D1, S5D2, FOXOi 1 μM, XAV 2 μM (present S5D1-4), TPB or PDBU 0.5 μM, XXI 2 μM
Method: FoxO1 inhibitor (FoxOi), Wnt inhibitor (XAV), Notch inhibitor (XXI), and/or PKC activator (PDBU or TPB) were tested for their effects on pancreatic islet cell differentiation.
PDX1-positive, NKX-negative cells were administered KGF (50 ng/ml), Sant-1 (250 nM), thiazovivin (2.5 μM), activin A (5 ng/ml), and retinoic acid (100 nM) for a period of six days (S4D1-S4D6) in a media including polyvinyl alcohol-80 (PVA-80) to generate a second population of cells. On day S4D5, the cells may also have been administered an additional reagent or combination of reagents as outlined in Table 5. After the six days, the second population of cells was administered XXI (2 μM), Alk5i (10 μM), GC-1 (1 μM), LDN-193189 (100 nM), thiazovivin (2.5 μM), staurosporine (3 nM), DZNEP (100 nM), Sant-1 (250 nM), retinoic acid (50 nM), and betacellulin (20 ng/ml) for two days (S5D1-S5D2) in a media comprising PVA-89. On days S5D1 and S5D2, the cells may also have been administered an additional reagent or combination of reagents as outlined in Table 5. On days S5D3-S5D6, the cells were administered XXI (2 μM), Alk5i (10 μM), GC-1 (1 μM), LDN-193189 (100 nM), thiazovivin (2.5 μM), staurosporine (3 nM), and DZNEP (100 nM). Cells were collected for analysis on day […].

EZH2 = EZH2 (Homo sapiens, UniProt Q15910); conditions: cited from earlier work
SC-islet cells = assay: Effect of additional FGF2 in stage 6 of differentiation; type: cell-based, human; conditions: FGF2 100 ng/ml added to stage 6 media (Media A) of Protocol 3
Method: SC-islet cells were differentiated using Protocol 1, Protocol 2, Protocol 3, or Protocol 3 with the addition of FGF2 (at 100 ng/ml) in stage 6 media (Media A shown in Table 6). Cells were collected on S6D3, S6D7, and […] for analysis. Cells were also tested for insulin content (FIG. 35A) and glucagon content (FIG. 35B).

Sequence of EZH2 (Q15910 whole entry, species assumed): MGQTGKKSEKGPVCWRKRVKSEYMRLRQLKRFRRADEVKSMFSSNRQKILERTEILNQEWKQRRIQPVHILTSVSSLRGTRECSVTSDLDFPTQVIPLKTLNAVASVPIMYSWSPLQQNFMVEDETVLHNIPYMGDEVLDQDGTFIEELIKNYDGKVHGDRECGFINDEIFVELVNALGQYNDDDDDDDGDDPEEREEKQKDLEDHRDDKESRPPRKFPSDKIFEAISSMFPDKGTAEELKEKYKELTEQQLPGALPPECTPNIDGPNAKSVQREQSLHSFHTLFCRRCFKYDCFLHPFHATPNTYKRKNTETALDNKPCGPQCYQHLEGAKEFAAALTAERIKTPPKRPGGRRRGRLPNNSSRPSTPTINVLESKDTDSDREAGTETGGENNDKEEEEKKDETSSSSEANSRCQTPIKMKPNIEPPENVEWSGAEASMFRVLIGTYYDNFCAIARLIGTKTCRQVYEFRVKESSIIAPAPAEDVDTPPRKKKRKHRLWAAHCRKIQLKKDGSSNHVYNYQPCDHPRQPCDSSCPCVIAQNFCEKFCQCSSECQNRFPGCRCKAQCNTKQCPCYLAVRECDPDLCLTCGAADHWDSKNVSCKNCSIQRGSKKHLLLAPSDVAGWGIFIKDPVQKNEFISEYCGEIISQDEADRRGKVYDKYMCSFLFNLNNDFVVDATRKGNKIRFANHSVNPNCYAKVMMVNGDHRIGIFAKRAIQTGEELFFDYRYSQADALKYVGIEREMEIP
Sequence of EZH2 (O75530 whole entry partner, species assumed): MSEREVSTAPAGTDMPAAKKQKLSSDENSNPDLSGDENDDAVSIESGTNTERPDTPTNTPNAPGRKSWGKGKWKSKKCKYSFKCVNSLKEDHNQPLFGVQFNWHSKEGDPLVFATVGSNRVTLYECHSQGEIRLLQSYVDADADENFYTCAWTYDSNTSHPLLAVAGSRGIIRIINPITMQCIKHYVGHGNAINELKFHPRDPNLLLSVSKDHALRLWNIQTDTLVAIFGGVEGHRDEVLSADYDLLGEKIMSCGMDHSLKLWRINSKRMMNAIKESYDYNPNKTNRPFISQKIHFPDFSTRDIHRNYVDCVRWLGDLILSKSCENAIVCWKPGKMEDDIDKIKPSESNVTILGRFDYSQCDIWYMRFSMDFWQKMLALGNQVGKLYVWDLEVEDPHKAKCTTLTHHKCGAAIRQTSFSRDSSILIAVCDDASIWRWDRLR
Sequence of EZH2 (Q15022 whole entry partner, species assumed): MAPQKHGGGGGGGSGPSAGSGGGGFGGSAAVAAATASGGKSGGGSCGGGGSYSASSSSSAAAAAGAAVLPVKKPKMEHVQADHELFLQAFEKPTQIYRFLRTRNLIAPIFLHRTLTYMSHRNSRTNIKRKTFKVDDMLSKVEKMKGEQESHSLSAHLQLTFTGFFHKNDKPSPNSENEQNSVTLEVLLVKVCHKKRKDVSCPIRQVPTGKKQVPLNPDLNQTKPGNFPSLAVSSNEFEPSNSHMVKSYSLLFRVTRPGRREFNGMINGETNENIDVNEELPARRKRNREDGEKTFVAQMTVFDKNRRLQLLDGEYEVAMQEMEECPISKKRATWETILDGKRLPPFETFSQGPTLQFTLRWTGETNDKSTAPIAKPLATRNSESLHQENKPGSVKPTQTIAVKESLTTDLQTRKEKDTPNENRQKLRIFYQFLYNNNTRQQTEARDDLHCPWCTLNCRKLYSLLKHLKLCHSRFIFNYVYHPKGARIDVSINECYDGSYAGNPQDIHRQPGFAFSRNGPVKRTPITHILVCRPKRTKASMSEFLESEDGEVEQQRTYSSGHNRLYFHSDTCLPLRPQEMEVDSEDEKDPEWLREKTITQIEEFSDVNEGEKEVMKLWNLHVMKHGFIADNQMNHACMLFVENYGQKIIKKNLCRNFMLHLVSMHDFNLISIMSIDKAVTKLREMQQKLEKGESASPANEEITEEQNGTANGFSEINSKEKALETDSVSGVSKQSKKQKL

CCn1cc(C(=O)O)c(=O)c2c(N)c(F)c(NC3CCCCC3)cc21 [FOXOi]
% of beta cells in S5D6 cell population [1]: 19% and 13%

CC[C@H](C)n1cc(C)c2c(C(=O)NCc3c(C)cc(C)[nH]c3=O)cc(-c3ccc(N4CCNCC4)nc3)cc21 [GSK126]
selectivity over EZH1 (EZH2; SAM-competitive EZH2 inhibitor): 150 fold

CCCC(=O)O[C@@H]1[C@@H](C)[C@@]2(O)[C@@H](C=C(CO)C[C@]3(O)C(=O)C(C)=C[C@@H]23)[C@@H]2C(C)(C)[C@]12OC(=O)CCC [PDBU, Phorbol 12,13-dibutyrate]
% of beta cells in S5D6 cell population [1]: 28%

CC(C)[C@H]1C(=O)N[C@H](CO)Cc2cc(NC(=O)/C=C/C=C/c3ccc(C(F)(F)F)cc3)ccc2N1C [TPB, ((2S,5S)-(E,E)-8-(5-(4-(Trifluoromethyl)phenyl)-2,4-pentadienoylamino)benzolactam)]
beta cell production (in words) ([1]; agents added on S4D5 and/or S5, FIGS. 9-15): did not result in more beta cell production
% of beta cells in S5D6 cell population [1]: 17%

CCCc1cc(C)[nH]c(=O)c1CNC(=O)c1cc(-c2ccc(N3CCN(C(C)C)CC3)nc2)cc2c1cnn2C(C)C [UNC1999]
selectivity compared with GSK126 (EZH2; analogue of GSK126): less selective

Oc1nc(-c2ccc(C(F)(F)F)cc2)nc2c1CSCC2 [XAV]
% of beta cells in S5D6 cell population [1]: 5%

FGF2: growth factor from the FGF family, added at 100 ng/ml in stage 6 media
glucagon-expressing cells (SC-alpha cells) (SC-islet cells): increases
